From patent US20020137929A1, “1 - (3-heterocyclylphenyl) isothiourea, -isourea, -guanidine and -amidine herbicidal agents” (Intellectual Property Department, BASF Aktiengesellschaft, priority 1998, published 2002)

Legend:
[1] = tested on: GALAP (Galium); assay: Preemergence herbicidal evaluation; format: in vivo, Galium aparine; settings: rated 4-5 weeks after treatment
Summary of the method: (§1)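 Scores use a 0–9 visual scale covering stand, vigor, malformation, size and chlorosis relative to controls, rated four to five weeks after treatment. Before emergence, soil-planted seeds were sprayed with compound in aqueous acetone at roughly 0.0156–0.500 kg/ha and held in the greenhouse.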

[2] = tested on: GLXMAW (Soybean, Williams); assay: Postemergence herbicidal evaluation; format: in vivo, Glycine max, (L.) Merr. cv Williams; settings: postemergence
Summary of the method: (§2)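 Visual 0–9 rating versus control (stand, vigor, malformation, size, chlorosis, overall appearance), taken four to five weeks post-spray. Two-week-old seedlings received roughly 0.0156–0.500 kg/ha active in acetone/water (50/50) with 0.5% TWEEN 20 via nozzle at 40 psi.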

[3] = tested on: AMBEL (Ragweed, Common); assay: Postemergence herbicidal evaluation; format: in vivo, Ambrosia artemisifolia; settings: postemergence
Summary of the method: as §2

[4] = tested on: CASOB (Sicklepod); assay: Preemergence herbicidal evaluation; format: in vivo, Cassia obtusifolia; settings: rated 4-5 weeks after treatment
Summary of the method: as §1

[5] = tested on: ECHCG (Barnyardgrass); assay: Postemergence herbicidal evaluation; format: in vivo, Echinochloa crus-galli; settings: postemergence
Summary of the method: as §2

[6] = tested on: ABUTH (Velvetleaf); assay: Postemergence herbicidal evaluation; format: in vivo, Abutilon theophrasti; settings: postemergence
Summary of the method: as §2

[7] = tested on: IPOHE (Morningglory, Ivyleaf); assay: Postemergence herbicidal evaluation; format: in vivo, Ipomoea hederacea; settings: postemergence
Summary of the method: as §2

[8] = tested on: TRZAWR (Wheat, Winter, cv Riband); assay: Postemergence herbicidal evaluation; format: in vivo, Triticum aestivum; settings: postemergence
Summary of the method: as §2

[9] = tested on: ZEAMX (Corn, Field); assay: Preemergence herbicidal evaluation; format: in vivo, Zea mays; settings: rated 4-5 weeks after treatment
Summary of the method: as §1

[10] = tested on: ECHORC (Watergrass (Calif.)); assay: Postemergence weed control under flooded paddy conditions; format: in vivo, Echinochloa oryzoides; settings: postemergence weeds
Summary of the method: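 Flood-water application, about 0.0313–0.500 kg/ha a.i. in aqueous/acetone 50/50 v/v; water depth 1.5–3 cm throughout. Weeds 3–5 cm, rice 1.5–2.5 leaf. Greenhouse; 0–9 visual rating vs control at 3–4 wk.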

[11] = tested on: SETVI (Foxtail, Green); assay: Postemergence herbicidal evaluation; format: in vivo, Setaria viridis; settings: postemergence
Summary of the method: as §2

[12] = tested on: CHEAL (Lambsquarters, Common); assay: Preemergence herbicidal evaluation; format: in vivo, Chenopodium album; settings: rated 4-5 weeks after treatment
Summary of the method: as §1

[13] = tested on: IPOHE (Morningglory, Ivyleaf); assay: Preemergence herbicidal evaluation; format: in vivo, Ipomoea hederacea; settings: rated 4-5 weeks after treatment
Summary of the method: as §1

[14] = tested on: ECHCG (Barnyardgrass); assay: Preemergence herbicidal evaluation; format: in vivo, Echinochloa crus-galli; settings: rated 4-5 weeks after treatment
Summary of the method: as §1

COC(=O)C(Cc1ccc(Cl)cc1)N1C(=O)CSC1=Nc1cc(-n2c(=O)cc(C(F)(F)F)n(C)c2=O)c(F)cc1Cl (racemic) [Compound 77, Methyl α-(p-chlorobenzyl)-2-{{2-chloro-5-[3,6-dihydro-3-methyl-2,6-dioxo-4-(trifluoromethyl)-1(2H)-pyrimidinyl]-4-fluorophenyl}imino}-4-oxo-3-thiazolidineacetate, DL-]
Preemergence herbicidal rating GALAP ([1]; rate 0.0156 kg/ha): 0.0 | Preemergence herbicidal rating GALAP ([1]; rate 0.0313 kg/ha): 0.0 | Preemergence herbicidal rating GALAP ([1]; rate 0.0625 kg/ha): 0.0 | Preemergence herbicidal rating GALAP ([1]; rate 0.1250 kg/ha): 1.0 | Preemergence herbicidal rating GALAP ([1]; rate 0.2500 kg/ha): 1.0 | GLXMAW herbicidal rating ([2]; rate 0.0158 kg/ha): 3.5 | GLXMAW herbicidal rating ([2]; rate 0.0315 kg/ha): 5.0 | GLXMAW herbicidal rating ([2]; rate 0.0630 kg/ha): 5.0 | AMBEL herbicidal rating ([3]; rate 0.0158 kg/ha): 9.0 | AMBEL herbicidal rating ([3]; rate 0.0315 kg/ha): 9.0 | AMBEL herbicidal rating ([3]; rate 0.0630 kg/ha): 9.0 | Preemergence herbicidal rating CASOB ([4]; rate 0.0156 kg/ha): 0.0 | Preemergence herbicidal rating CASOB ([4]; rate 0.0313 kg/ha): 0.0 | Preemergence herbicidal rating CASOB ([4]; rate 0.0625 kg/ha): 0.0 | Preemergence herbicidal rating CASOB ([4]; rate 0.1250 kg/ha): 0.0 | Preemergence herbicidal rating CASOB ([4]; rate 0.2500 kg/ha): 0.0 | ECHCG herbicidal rating ([5]; rate 0.0158 kg/ha): 1.0 | ECHCG herbicidal rating ([5]; rate 0.0315 kg/ha): 1.0 | ECHCG herbicidal rating ([5]; rate 0.0630 kg/ha): 1.0 | ABUTH herbicidal rating ([6]; rate 0.0158 kg/ha): 9.0 | ABUTH herbicidal rating ([6]; rate 0.0315 kg/ha): 9.0 | ABUTH herbicidal rating ([6]; rate 0.0630 kg/ha): 9.0 | IPOHE herbicidal rating ([7]; rate 0.0158 kg/ha): 9.0 | IPOHE herbicidal rating ([7]; rate 0.0315 kg/ha): 9.0 | IPOHE herbicidal rating ([7]; rate 0.0630 kg/ha): 9.0 | TRZAWR herbicidal rating ([8]; rate 0.0158 kg/ha): 3.0 | TRZAWR herbicidal rating ([8]; rate 0.0315 kg/ha): 2.5 | TRZAWR herbicidal rating ([8]; rate 0.0630 kg/ha): 3.0 | Preemergence herbicidal rating ZEAMX ([9]; rate 0.0156 kg/ha): 2.0 | Preemergence herbicidal rating ZEAMX ([9]; rate 0.0313 kg/ha): 0.0 | Preemergence herbicidal rating ZEAMX ([9]; rate 0.0625 kg/ha): 0.0 | Preemergence herbicidal rating ZEAMX ([9]; rate 0.1250 kg/ha): 0.0 | Preemergence herbicidal rating ZEAMX ([9]; rate 0.2500 kg/ha): 1.0 | Herbicidal rating ECHORC ([10]; Rate 0.0313 kg/ha, rated 3 to 4 weeks after treatment): 9.0 | Herbicidal rating ECHORC ([10]; Rate 0.0625 kg/ha, rated 3 to 4 weeks after treatment): 9.0 | Herbicidal rating ECHORC ([10]; Rate 0.1250 kg/ha, rated 3 to 4 weeks after treatment): 9.0 | Herbicidal rating ECHORC ([10]; Rate 0.2500 kg/ha, rated 3 to 4 weeks after treatment): 9.0 | SETVI herbicidal rating ([11]; rate 0.0158 kg/ha): 1.0 | SETVI herbicidal rating ([11]; rate 0.0315 kg/ha): 6.0 | SETVI herbicidal rating ([11]; rate 0.0630 kg/ha): 7.0 | Preemergence herbicidal rating CHEAL ([12]; rate 0.0156 kg/ha): 2.0 | Preemergence herbicidal rating CHEAL ([12]; rate 0.0313 kg/ha): 9.0 | Preemergence herbicidal rating CHEAL ([12]; rate 0.0625 kg/ha): 9.0 | Preemergence herbicidal rating CHEAL ([12]; rate 0.1250 kg/ha): 9.0 | Preemergence herbicidal rating CHEAL ([12]; rate 0.2500 kg/ha): 9.0 | Preemergence herbicidal rating IPOHE ([13]; rate 0.0156 kg/ha): 1.0 | Preemergence herbicidal rating IPOHE ([13]; rate 0.0313 kg/ha): 0.0 | Preemergence herbicidal rating IPOHE ([13]; rate 0.0625 kg/ha): 0.0 | Preemergence herbicidal rating IPOHE ([13]; rate 0.1250 kg/ha): 0.0 | Preemergence herbicidal rating IPOHE ([13]; rate 0.2500 kg/ha): 2.0 | Preemergence herbicidal rating ECHCG ([14]; rate 0.0156 kg/ha): 0.0 | Preemergence herbicidal rating ECHCG ([14]; rate 0.0313 kg/ha): 0.0 | Preemergence herbicidal rating ECHCG ([14]; rate 0.0625 kg/ha): 0.0 | Preemergence herbicidal rating ECHCG ([14]; rate 0.1250 kg/ha): 0.0 | Preemergence herbicidal rating ECHCG ([14]; rate 0.2500 kg/ha): 0.0

CCOC(=O)CN1C(=O)CSC1=Nc1cc(-n2c(=O)cc(C(F)(F)F)n(C)c2=O)c(F)cc1Cl [Compound 8, Ethyl 2-{{2-chloro-5-[3,6-dihydro-3-methyl-2,6-dioxo-4-(trifluoromethyl)-1(2H)pyrimidinyl]-4-fluorophenyl}imino}-4-oxo-3-thiazolidineacetate]
GALAP preemergence herbicidal rating ([1]; rate 0.0156 kg/ha): 0.0 | GALAP preemergence herbicidal rating ([1]; rate 0.0313 kg/ha): 1.3 | GALAP preemergence herbicidal rating ([1]; rate 0.0625 kg/ha): 5.5 | GALAP preemergence herbicidal rating ([1]; rate 0.1250 kg/ha): 7.5 | GALAP preemergence herbicidal rating ([1]; rate 0.2500 kg/ha): 9.0 | GALAP preemergence herbicidal rating ([1]; rate 0.5000 kg/ha): 9.0 | GLXMAW herbicidal rating ([2]; rate 0.0157 kg/ha): 7.5 | GLXMAW herbicidal rating ([2]; rate 0.0313 kg/ha): 7.6 | GLXMAW herbicidal rating ([2]; rate 0.0625 kg/ha): 7.9 | GLXMAW herbicidal rating ([2]; rate 0.1250 kg/ha): 8.4 | AMBEL herbicidal rating ([3]; rate 0.0157 kg/ha): 9.0 | AMBEL herbicidal rating ([3]; rate 0.0313 kg/ha): 7.8 | AMBEL herbicidal rating ([3]; rate 0.0625 kg/ha): 8.3 | AMBEL herbicidal rating ([3]; rate 0.1250 kg/ha): 8.6 | CASOB preemergence herbicidal rating ([4]; rate 0.0156 kg/ha): 0.0 | CASOB preemergence herbicidal rating ([4]; rate 0.0313 kg/ha): 0.1 | CASOB preemergence herbicidal rating ([4]; rate 0.0625 kg/ha): 1.2 | CASOB preemergence herbicidal rating ([4]; rate 0.1250 kg/ha): 1.7 | CASOB preemergence herbicidal rating ([4]; rate 0.2500 kg/ha): 3.3 | CASOB preemergence herbicidal rating ([4]; rate 0.5000 kg/ha): 3.8 | ECHCG herbicidal rating ([5]; rate 0.0157 kg/ha): 3.0 | ECHCG herbicidal rating ([5]; rate 0.0313 kg/ha): 2.1 | ECHCG herbicidal rating ([5]; rate 0.0625 kg/ha): 5.3 | ECHCG herbicidal rating ([5]; rate 0.1250 kg/ha): 8.2 | ABUTH herbicidal rating ([6]; rate 0.0157 kg/ha): 9.0 | ABUTH herbicidal rating ([6]; rate 0.0313 kg/ha): 9.0 | ABUTH herbicidal rating ([6]; rate 0.0625 kg/ha): 9.0 | ABUTH herbicidal rating ([6]; rate 0.1250 kg/ha): 9.0 | IPOHE herbicidal rating ([7]; rate 0.0157 kg/ha): 9.0 | IPOHE herbicidal rating ([7]; rate 0.0313 kg/ha): 9.0 | IPOHE herbicidal rating ([7]; rate 0.0625 kg/ha): 9.0 | IPOHE herbicidal rating ([7]; rate 0.1250 kg/ha): 9.0 | TRZAWR herbicidal rating ([8]; rate 0.0157 kg/ha): 3.5 | TRZAWR herbicidal rating ([8]; rate 0.0313 kg/ha): 5.1 | TRZAWR herbicidal rating ([8]; rate 0.0625 kg/ha): 6.4 | TRZAWR herbicidal rating ([8]; rate 0.1250 kg/ha): 6.4 | ZEAMX preemergence herbicidal rating ([9]; rate 0.0156 kg/ha): 2.2 | ZEAMX preemergence herbicidal rating ([9]; rate 0.0313 kg/ha): 4.9 | ZEAMX preemergence herbicidal rating ([9]; rate 0.0625 kg/ha): 6.4 | ZEAMX preemergence herbicidal rating ([9]; rate 0.1250 kg/ha): 7.4 | ZEAMX preemergence herbicidal rating ([9]; rate 0.2500 kg/ha): 7.9 | ZEAMX preemergence herbicidal rating ([9]; rate 0.5000 kg/ha): 8.3 | Herbicidal rating ECHORC ([10]; rate 0.0313 kg/ha, 3-4 weeks after treatment): 6.5 | Herbicidal rating ECHORC ([10]; rate 0.0625 kg/ha, 3-4 weeks after treatment): 6.5 | Herbicidal rating ECHORC ([10]; rate 0.1250 kg/ha, 3-4 weeks after treatment): 7.5 | Herbicidal rating ECHORC ([10]; rate 0.2500 kg/ha, 3-4 weeks after treatment): 8.5 | SETVI herbicidal rating ([11]; rate 0.0313 kg/ha): 5.3 | SETVI herbicidal rating ([11]; rate 0.0625 kg/ha): 7.6 | SETVI herbicidal rating ([11]; rate 0.1250 kg/ha): 9.0 | CHEAL preemergence herbicidal rating ([12]; rate 0.0156 kg/ha): 9.0 | CHEAL preemergence herbicidal rating ([12]; rate 0.0313 kg/ha): 9.0 | CHEAL preemergence herbicidal rating ([12]; rate 0.0625 kg/ha): 9.0 | CHEAL preemergence herbicidal rating ([12]; rate 0.1250 kg/ha): 9.0 | CHEAL preemergence herbicidal rating ([12]; rate 0.2500 kg/ha): 9.0 | CHEAL preemergence herbicidal rating ([12]; rate 0.5000 kg/ha): 9.0 | IPOHE preemergence herbicidal rating ([13]; rate 0.0156 kg/ha): 1.1 | IPOHE preemergence herbicidal rating ([13]; rate 0.0313 kg/ha): 4.4 | IPOHE preemergence herbicidal rating ([13]; rate 0.0625 kg/ha): 6.4 | IPOHE preemergence herbicidal rating ([13]; rate 0.1250 kg/ha): 8.6 | IPOHE preemergence herbicidal rating ([13]; rate 0.2500 kg/ha): 8.6 | IPOHE preemergence herbicidal rating ([13]; rate 0.5000 kg/ha): 9.0 | ECHCG preemergence herbicidal rating ([14]; rate 0.0156 kg/ha): 0.4 | ECHCG preemergence herbicidal rating ([14]; rate 0.0313 kg/ha): 2.2 | ECHCG preemergence herbicidal rating ([14]; rate 0.0625 kg/ha): 4.4 | ECHCG preemergence herbicidal rating ([14]; rate 0.1250 kg/ha): 7.4 | ECHCG preemergence herbicidal rating ([14]; rate 0.2500 kg/ha): 8.9 | ECHCG preemergence herbicidal rating ([14]; rate 0.5000 kg/ha): 9.0
